Data reported in PubChem BioAssay (NCI).
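Tested at 5 concentrations; 48 h exposure; 96-well plates; endpoints linearly interpolated, else capped at highest concentration. TGI: concentration producing complete growth inhibition.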

Tests used:
Assay in all cases: growth of human tumour cells (NCI), 48 h
786-0 renal = tested on: 786-0 renal
A498 renal = tested on: A498 renal
A549 NSCLC = tested on: A549 NSCLC
CCRF-CEM leukemia = tested on: CCRF-CEM leukemia
COLO 205 colon = tested on: COLO 205 colon
DLD-1 colon = tested on: DLD-1 colon
DMS 114 small cell lung = tested on: DMS 114 small cell lung
DMS 273 small cell lung = tested on: DMS 273 small cell lung
EKVX NSCLC = tested on: EKVX NSCLC
HCC-2998 colon = tested on: HCC-2998 colon
HCT-116 colon = tested on: HCT-116 colon
HCT-15 colon = tested on: HCT-15 colon
HL-60(TB) leukemia = tested on: HL-60(TB) leukemia
HOP-18 NSCLC = tested on: HOP-18 NSCLC
HOP-92 NSCLC = tested on: HOP-92 NSCLC
HT29 colon = tested on: HT29 colon
IGROV1 ovarian = tested on: IGROV1 ovarian
K-562 leukemia = tested on: K-562 leukemia
KM12 colon = tested on: KM12 colon
KM20L2 colon = tested on: KM20L2 colon
LOX IMVI melanoma = tested on: LOX IMVI melanoma
LXFL 529 NSCLC = tested on: LXFL 529 NSCLC
M14 melanoma = tested on: M14 melanoma
M19-MEL melanoma = tested on: M19-MEL melanoma
MOLT-4 leukemia = tested on: MOLT-4 leukemia
NCI-H226 lung = tested on: NCI-H226 lung
NCI-H23 lung = tested on: NCI-H23 lung
OVCAR-3 ovarian = tested on: OVCAR-3 ovarian
OVCAR-4 ovarian = tested on: OVCAR-4 ovarian
OVCAR-8 ovarian = tested on: OVCAR-8 ovarian
RPMI-8226 leukemia = tested on: RPMI-8226 leukemia
SF-295 CNS = tested on: SF-295 CNS
SF-539 CNS = tested on: SF-539 CNS
SK-MEL-2 melanoma = tested on: SK-MEL-2 melanoma
SK-MEL-28 melanoma = tested on: SK-MEL-28 melanoma
SK-MEL-5 melanoma = tested on: SK-MEL-5 melanoma
SK-OV-3 ovarian = tested on: SK-OV-3 ovarian
SN12C renal = tested on: SN12C renal
SNB-19 CNS = tested on: SNB-19 CNS
SNB-75 CNS = tested on: SNB-75 CNS
SW-620 colon = tested on: SW-620 colon
TK-10 renal = tested on: TK-10 renal
U251 CNS = tested on: U251 CNS
UACC-62 melanoma = tested on: UACC-62 melanoma
UO-31 renal = tested on: UO-31 renal
ACHN renal = tested on: ACHN renal
BT-549 breast = tested on: BT-549 breast
CAKI-1 renal = tested on: CAKI-1 renal
DU-145 prostate = tested on: DU-145 prostate
HOP-62 NSCLC = tested on: HOP-62 NSCLC
HS 578T breast = tested on: HS 578T breast
MALME-3M melanoma = tested on: MALME-3M melanoma
MCF7 breast = tested on: MCF7 breast
MDA-MB-231 breast = tested on: MDA-MB-231 breast
MDA-MB-435 = tested on: MDA-MB-435
MDA-N = tested on: MDA-N
NCI-H460 lung = tested on: NCI-H460 lung
NCI-H522 lung = tested on: NCI-H522 lung
NCI/ADR-RES ovarian = tested on: NCI/ADR-RES ovarian
OVCAR-5 ovarian = tested on: OVCAR-5 ovarian
PC-3 prostate = tested on: PC-3 prostate
RXF 393 renal = tested on: RXF 393 renal
SF-268 CNS = tested on: SF-268 CNS
SR leukemia = tested on: SR leukemia
T-47D breast = tested on: T-47D breast
UACC-257 melanoma = tested on: UACC-257 melanoma

Compound: COC(=O)[C@@]12C3=NO[C@]1(C(=O)OC)C(O[Si](C)(C)C(C)(C)C)C1OC(C)(C)OC1[C@@H]2[C@@H](OCc1ccccc1)CC3 (some centres undefined)
- TGI (786-0 renal): > 100 µM
- TGI (A498 renal): > 100 µM
- TGI (A549 NSCLC): > 100 µM
- TGI (CCRF-CEM leukemia): > 100 µM
- TGI (COLO 205 colon): > 100 µM
- TGI (DLD-1 colon): > 100 µM
- TGI (DMS 114 small cell lung): > 100 µM
- TGI (DMS 273 small cell lung): > 100 µM
- TGI (EKVX NSCLC): > 100 µM
- TGI (HCC-2998 colon): > 100 µM
- TGI (HCT-116 colon): > 100 µM
- TGI (HCT-15 colon): > 100 µM
- TGI (HL-60(TB) leukemia): 13.9 µM
- TGI (HOP-18 NSCLC): > 100 µM
- TGI (HOP-92 NSCLC): 17.3 µM
- TGI (HT29 colon): > 100 µM
- TGI (IGROV1 ovarian): > 100 µM
- TGI (K-562 leukemia): > 100 µM
- TGI (KM12 colon): > 100 µM
- TGI (KM20L2 colon): > 100 µM
- TGI (LOX IMVI melanoma): > 100 µM
- TGI (LXFL 529 NSCLC): > 100 µM
- TGI (M14 melanoma): > 100 µM
- TGI (M19-MEL melanoma): > 100 µM
- TGI (MOLT-4 leukemia): > 100 µM
- TGI (NCI-H226 lung): > 100 µM
- TGI (NCI-H23 lung): > 100 µM
- TGI (OVCAR-3 ovarian): > 100 µM
- TGI (OVCAR-4 ovarian): > 100 µM
- TGI (OVCAR-8 ovarian): > 100 µM
- TGI (RPMI-8226 leukemia): > 100 µM
- TGI (SF-295 CNS): > 100 µM
- TGI (SF-539 CNS): > 100 µM
- TGI (SK-MEL-2 melanoma): > 100 µM
- TGI (SK-MEL-28 melanoma): > 100 µM
- TGI (SK-MEL-5 melanoma): > 100 µM
- TGI (SK-OV-3 ovarian): > 100 µM
- TGI (SN12C renal): > 100 µM
- TGI (SNB-19 CNS): > 100 µM
- TGI (SNB-75 CNS): > 100 µM
- TGI (SW-620 colon): > 100 µM
- TGI (TK-10 renal): > 100 µM
- TGI (U251 CNS): > 100 µM
- TGI (UACC-62 melanoma): > 100 µM
- TGI (UO-31 renal): > 100 µM

Compound: O=C(CCl)Nc1ccc(-c2nc3ccccc3s2)cc1
- TGI (786-0 renal): 4.62 µM
- TGI (A498 renal): 11.7 µM
- TGI (A549 NSCLC): 21.8 µM
- TGI (ACHN renal): 13.8 µM
- TGI (BT-549 breast): 2.95 µM
- TGI (CAKI-1 renal): 3.38 µM
- TGI (CCRF-CEM leukemia): > 36.7 µM
- TGI (COLO 205 colon): 3.82 µM
- TGI (DU-145 prostate): 38 µM
- TGI (EKVX NSCLC): 17.1 µM
- TGI (HCC-2998 colon): 5.91 µM
- TGI (HCT-116 colon): 5.81 µM
- TGI (HCT-15 colon): 6.65 µM
- TGI (HL-60(TB) leukemia): 5.73 µM
- TGI (HOP-62 NSCLC): 12.3 µM
- TGI (HOP-92 NSCLC): 6.08 µM
- TGI (HS 578T breast): 20.1 µM
- TGI (HT29 colon): 5.57 µM
- TGI (IGROV1 ovarian): 3.3 µM
- TGI (K-562 leukemia): 4.56 µM
- TGI (KM12 colon): 11 µM
- TGI (LOX IMVI melanoma): 2.31 µM
- TGI (M14 melanoma): 4.98 µM
- TGI (MALME-3M melanoma): 4.13 µM
- TGI (MCF7 breast): 2.39 µM
- TGI (MDA-MB-231 breast): 16.8 µM
- TGI (MDA-MB-435): 12.2 µM
- TGI (MDA-N): 7.89 µM
- TGI (MOLT-4 leukemia): 12.8 µM
- TGI (NCI-H226 lung): 5.11 µM
- TGI (NCI-H23 lung): 10.2 µM
- TGI (NCI-H460 lung): 7.46 µM
- TGI (NCI-H522 lung): 3.64 µM
- TGI (NCI/ADR-RES ovarian): > 56.2 µM
- TGI (OVCAR-3 ovarian): 3.61 µM
- TGI (OVCAR-4 ovarian): 15.2 µM
- TGI (OVCAR-5 ovarian): 17.1 µM
- TGI (OVCAR-8 ovarian): 9.66 µM
- TGI (PC-3 prostate): 6.71 µM
- TGI (RPMI-8226 leukemia): 5.34 µM
- TGI (RXF 393 renal): 7.67 µM
- TGI (SF-268 CNS): 8.44 µM
- TGI (SF-295 CNS): 15 µM
- TGI (SF-539 CNS): 8.16 µM
- TGI (SK-MEL-2 melanoma): 8.37 µM
- TGI (SK-MEL-28 melanoma): 9.66 µM
- TGI (SK-MEL-5 melanoma): 3.17 µM
- TGI (SK-OV-3 ovarian): 17.5 µM
- TGI (SN12C renal): 4.2 µM
- TGI (SNB-19 CNS): 9.99 µM
- TGI (SNB-75 CNS): 11 µM
- TGI (SR leukemia): 5.49 µM
- TGI (SW-620 colon): 5.07 µM
- TGI (T-47D breast): 5.59 µM
- TGI (TK-10 renal): 22.6 µM
- TGI (U251 CNS): 3.15 µM
- TGI (UACC-257 melanoma): 11.6 µM
- TGI (UACC-62 melanoma): 8.71 µM
- TGI (UO-31 renal): 20.6 µM
